From patent US6706727B1, “Macrolides” (Novartis AG, priority 2002, dated 2004)

Test system: CD4+ antigen-specific human helper T-cell clone (TCC)
Assay: Antigen-specific stimulation of the helper T-cell clone (TCC) by monocyte-derived dendritic cells, T-cell proliferation (3H-thymidine)
Type: cell-based
Conditions: Dpt-pulsed M-DC, M-DC/T-cell ratio 1/50, 4 day culture
Excerpt: This activity is further evidenced in additional testing with the above helper T-cell clone and monocyte-derived dendritic cells:
The CD4^+ antigen-specific human helper T-cell clone (TCC) is established by limiting dilution culture (Van Reijsen T. C. et al, J. Allergy Clin. Immunol. 90 [1992] 184-193). The TCC recognizes a peptide derived from the major allergen Der p1 of the house dust mite Dermatophagoides pteronyssinus (Dpt) in association with the MHC class II restriction molecule HLA-DPw4 (Baselmnns P. J. et al., Human Immunol. 61 [2000] 789-798). To obtain sufficient cell numbers for assay purposes, the TCC is expanded in vitro by activation with immobilized anti-CD3 monoclonal antibody (Leu4, Becton Dickinson, San Jose, Calif., USA) and culture in complete medium supplemented with rIL-2 and rhIL-4 (50 U/ml each) (Van Reijsen et al., supra).
Human monocyte-derived dendritic cells (M-DC) are generated from purified monocytes by culturing in RPMI 1640 culture medium at a cell density of 7×10^5 cells/ml. The culture medium is supplemented with 15% FCS and rh-GM-CSF (300 U/ml) and rh-IL-4 (100 U/ml). At day 7 of culture, 90-95% of the cells express the phenotype of M-DC as verified by flow cytometry and they are used for antigen-specific stimulation of the TCC, which is used at least 14 days after the last challenge by antigen or anti-CD3 mAb to ensure a resting state of the cells. For antigen-specific stimulation, the M-DC are incubated overnight (at least 12 h) in culture medium containing 50 μ/ml of the extract of Dpt (ARTU Biologicals NV, Lelystad, The Netherlands). The content of the major allergen Der p1 used is about 18.5 μg/mg of Dpt extract. The M-DC are washed twice and 50 μl aliquots of the final number of M-DC are added to 5×10^4 T-cells per well in 100 μl medium, giving a M-DC/T-cell ratio of 1/50. Immediately thereafter, 50 μl aliquots of a four-fold final concentration of test compound are added. Each sample is tested in quadruplicate. The test compound is dissolved in ethanol to provide a stock solution of 1 mM and diluted 1/1000 in the complete culture medium that is also used to prepare the final test compound dilution. T-cell proliferation is determined by pulsing with 1 μCi/20 μl/well of (methyl-)^3H-thymidine (Amersham, U.K) during the final 16 hours of a 4 day culture period.

Work on `CC/C1=C\[C@@H](CC)C(=O)C[C@H](O)[C@@H](C)[C@@H](/C(C)=C/[C@@H]2CC[C@H](Cl)[C@H](OC)C2)OC(=O)[C@@H]2CCCCN2C(=O)C(=O)[C@]2(O)O[C@H]([C@@H](OC)C[C@@H](C)C1)[C@@H](OC)C[C@H]2C` [Compound 19-ethyl-ASM] yielded an IC50 of 6.8 nM.

`CC[C@H]1C/C(C)=C/[C@@H](CC)C(=O)C[C@H](O)[C@@H](C)[C@@H](/C(C)=C/[C@@H]2CC[C@H](Cl)[C@H](OC)C2)OC(=O)[C@@H]2CCCCN2C(=O)C(=O)[C@]2(O)O[C@H]([C@@H](OC)C1)[C@@H](OC)C[C@H]2C` [Compound 21-ethyl-ASM] showed an IC50 of 1.6 nM.

`CC[C@@H]1C[C@H](OC)[C@@H]2O[C@@]1(O)C(=O)C(=O)N1CCCC[C@H]1C(=O)O[C@H](/C(C)=C/[C@@H]1CC[C@@H](O)[C@H](OC)C1)[C@H](C)[C@@H](O)CC(=O)[C@H](CC)/C=C(\C)C[C@H](C)C[C@@H]2OC` [27-ethyl-ascomycin] gave an IC50 of 0.88 nM.

In the case of `CC[C@@H]1C[C@H](OC)[C@@H]2O[C@@]1(O)C(=O)C(=O)N1CCCC[C@H]1C(=O)O[C@H](/C(C)=C/[C@@H]1CC[C@H](Cl)[C@H](OC)C1)[C@H](C)[C@@H](O)CC(=O)[C@H](CC)/C=C(\C)C[C@H](C)C[C@@H]2OC` [Compound 27-ethyl-ASM], the IC50 is reported as 4.6 nM.

Work on `CC[C@H]1C/C(C)=C/[C@@H](CC)C(=O)C[C@H](O)[C@@H](C)[C@@H](/C(C)=C/[C@@H]2CC[C@@H](O)[C@H](OC)C2)OC(=O)[C@@H]2CCCCN2C(=O)C(=O)[C@]2(O)O[C@H]([C@@H](OC)C1)[C@@H](OC)C[C@H]2C` [21-ethyl-ascomycin] yielded an IC50 of 0.33 nM.
